The source made the active and inactive calls.
Tests used:
Candida albicans = assay: Antifungal activity against Candida albicans at 250 ug/ml after 72 hrs by disc diffusion method; assay type: functional; conditions: for zone of inhibition at 250 µg/mL: read-out: IZ
Achaea janata = assay: Antifeedant activity against fourth instar larvae of Achaea janata fed on compound treated castor leaves at 200 ppm after 24 hrs by leaf disc method; assay type: functional, organism-based
Enterococcus faecalis = assay: Antibacterial activity against Enterococcus faecalis at 250 ug/ml after 24 to 45 hrs by disc diffusion method; assay type: functional; conditions: for zone of inhibition at 250 µg/mL: read-out: IZ
Pseudomonas = assay: Antibacterial activity against Pseudomonas at 250 ug/ml after 24 to 45 hrs by disc diffusion method; assay type: functional; conditions: read-out: IZ
Proteus vulgaris = assay: Antibacterial activity against Proteus vulgaris at 250 ug/ml after 24 to 45 hrs by disc diffusion method; assay type: functional; conditions: for zone of inhibition at 250 µg/mL: read-out: IZ
Escherichia coli = assay: Antibacterial activity against Escherichia coli at 250 ug/ml after 24 to 45 hrs by disc diffusion method; assay type: functional; conditions: read-out: IZ
Staphylococcus aureus = assay: Antibacterial activity against Staphylococcus aureus at 250 ug/ml after 24 to 45 hrs by disc diffusion method; assay type: functional; conditions: read-out: IZ
Aspergillus niger = assay: Antifungal activity against Aspergillus niger at 50 ug/ml after 72 hrs by disc diffusion method; assay type: functional, organism-based
Penicillium = assay: Antifungal activity against Penicillium at 50 ug/ml after 72 hrs by disc diffusion method; assay type: functional, organism-based
Klebsiella pneumoniae = assay: Antibacterial activity against Klebsiella pneumoniae at 250 ug/ml after 24 to 45 hrs by disc diffusion method; assay type: functional; conditions: read-out: IZ

Row | Structure (SMILES) | zone of inhibition at 250 µg/mL (Candida albicans) | Activity (Achaea janata) | Activity (Enterococcus faecalis) | zone of inhibition at 250 µg/mL (Pseudomonas) | zone of inhibition at 250 µg/mL (Proteus vulgaris) | zone of inhibition at 250 µg/mL (Escherichia coli) | zone of inhibition at 250 µg/mL (Staphylococcus aureus) | Activity (Aspergillus niger) | Activity (Penicillium) | zone of inhibition at 250 µg/mL (Klebsiella pneumoniae) | Activity (Candida albicans) | zone of inhibition at 250 µg/mL (Enterococcus faecalis) | Activity (Proteus vulgaris)
1 | O=C(c1ccccc1)c1cc(Cl)cc2c1N1Cc3cc(Cl)cc(C(=O)c4ccccc4)c3N(C2)C1 | 20 mm | Active | inactive | 13 mm | 13 mm | 13 mm | 13 mm | Active | inactive | 13 mm |  |  | 
2 | O=[N+]([O-])c1ccc2c(c1)CN1CN2Cc2cc([N+](=O)[O-])ccc21 |  |  |  | 13 mm | 13 mm | 20 mm | 13 mm | inactive | inactive | 13 mm | inactive | 20 mm | 
3 | Nc1ccc2c(c1)CN1CN2Cc2cc(N)ccc21 | 13 mm |  | inactive | 13 mm | 13 mm | 13 mm | 13 mm | inactive | inactive | 13 mm |  |  | 
4 | COc1ccc2c(c1Br)CN1CN2Cc2c1ccc(OC)c2Br | 13 mm | Active |  | 20 mm | 20 mm | 20 mm | 20 mm | Active | Active | 20 mm |  | 13 mm | 
5 | COc1ccc2c(c1Cl)CN1CN2Cc2c1ccc(OC)c2Cl | 20 mm | Active |  | 20 mm | 20 mm | 20 mm | 20 mm | inactive | Active | 20 mm |  | 13 mm | 
6 | CCCOC(=O)c1ccc2c(c1)CN1CN2Cc2cc(C(=O)OCCC)ccc21 | 13 mm |  |  | 20 mm | 13 mm | 13 mm | 20 mm | Active | Active | 20 mm |  | 20 mm | 
7 | Cc1cc2c(cc1Cl)N1Cc3cc(C)c(Cl)cc3N(C2)C1 | 13 mm | Active |  | 13 mm | 8 mm | 8 mm | 8 mm | inactive | inactive | 13 mm |  | 13 mm | 
8 | COc1cc(C)c2c(c1)CN1CN2Cc2cc(OC)cc(C)c21 | 20 mm |  |  | 20 mm | 8 mm | 20 mm | 20 mm | inactive | Active | 20 mm |  | 13 mm | 
9 | c1ccc2c(c1)CN1CN2Cc2ccccc21 |  |  | inactive | 8 mm | 8 mm | 8 mm | 13 mm | inactive | inactive | 8 mm | inactive |  | 
10 | COc1ccc2c(c1)CN1CN2Cc2cc(OC)ccc21 | 20 mm |  |  | 20 mm | 13 mm | 20 mm | 20 mm | inactive | Active | 13 mm |  | 20 mm | 
11 | CC(=O)c1cccc2c1N1Cc3cccc(C(C)=O)c3N(C2)C1 | 20 mm |  | inactive | 8 mm | 8 mm | 8 mm | 13 mm | Active | inactive | 8 mm |  |  | 
12 | Cc1ccc2c(c1O)CN1CN2Cc2c1ccc(C)c2O | 13 mm |  |  | 8 mm | 8 mm | 8 mm | 13 mm | inactive | inactive | 8 mm |  | 13 mm | 
13 | Cc1cc(C#N)c2c(c1)CN1CN2Cc2cc(C)cc(C#N)c21 | 13 mm |  | inactive | 8 mm | 8 mm | 13 mm | 8 mm | inactive | inactive | 8 mm |  |  | 
14 | Cc1cc(N)cc2c1N1Cc3cc(N)cc(C)c3N(C2)C1 | 13 mm |  |  | 13 mm | 13 mm | 13 mm | 13 mm | inactive | inactive | 13 mm |  | 8 mm | 
15 | Cc1cc(C)c2c(c1)CN1CN2Cc2cc(C)cc(C)c21 | 13 mm |  |  | 8 mm | 13 mm | 13 mm | 13 mm | inactive | inactive | 13 mm |  | 8 mm | 
16 | CCOc1ccc2c(c1)CN1CN2Cc2cc(OCC)ccc21 | 8 mm |  | inactive | 20 mm | 13 mm | 20 mm | 20 mm | Active | Active | 13 mm |  |  | 
17 | Cc1cc([N+](=O)[O-])cc2c1N1Cc3cc([N+](=O)[O-])cc(C)c3N(C2)C1 | 13 mm |  |  | 13 mm | 13 mm | 13 mm | 13 mm | inactive | inactive | 13 mm |  | 8 mm | 
18 | Cc1cc2c(cc1Br)N1Cc3cc(C)c(Br)cc3N(C2)C1 | 13 mm |  |  | 8 mm | 8 mm | 8 mm | 13 mm | inactive | inactive | 8 mm |  | 13 mm | 
19 | N#Cc1ccc2c(c1)CN1CN2Cc2cc(C#N)ccc21 | 13 mm |  | inactive | 13 mm | 13 mm | 13 mm | 13 mm | inactive | inactive | 13 mm |  |  | 
20 | Cc1cccc2c1N1Cc3cccc(C)c3N(C2)C1 | 13 mm |  |  | 13 mm | 8 mm | 8 mm | 8 mm | inactive | inactive | 13 mm |  | 13 mm | 
21 | Cc1cc(Br)c2c(c1)CN1CN2Cc2cc(C)cc(Br)c21 | 8 mm |  | inactive | 13 mm | 13 mm | 13 mm | 13 mm | inactive | inactive | 13 mm |  |  | 
22 | Cc1ccc2c(c1C)N1Cc3ccc(C)c(C)c3N(C2)C1 | 8 mm |  |  | 8 mm |  | 13 mm | 8 mm | inactive | Active | 13 mm |  | 8 mm | inactive
23 | Cc1ccc2c(c1)CN1CN2Cc2cc(C)ccc21 | 13 mm |  | inactive | 8 mm | 8 mm | 8 mm | 13 mm | inactive | inactive | 8 mm |  |  | 
24 | Cc1cc(N)c2c(c1)CN1CN2Cc2cc(C)cc(N)c21 | 13 mm |  | inactive | 13 mm | 13 mm | 13 mm | 13 mm | inactive | Active | 13 mm |  |  | 
25 | CCOC(=O)c1ccc2c(c1)CN1CN2Cc2cc(C(=O)OCC)ccc21 |  |  |  | 20 mm | 13 mm | 20 mm | 20 mm | inactive | inactive | 13 mm | inactive | 20 mm | 

From ChEMBL document CHEMBL3046842, “Antimicrobial and insect antifeedant activities of some Trogers bases” (2012)
